# Measurements: patent publication US20040146519A1, “Inducing cellular immune responses to carcinoembryonic antigen using peptide and nucleic acid compositions” (priority 2002, published 2004)
# pIC50: −log10 of the molar value.
# Key:
# HLA-DRB1*0301 (DR3) = HLA-DRB1*0301 (DR3) (Homo sapiens, UniProt P01903+P01911, A100K/A102G/A103R/A169T/F55Y/I96L/K41T/L162R/M171V/P40S/Q125H/Q178H/Q39Y/R42S/S66N/T106N/T262R/W38E/Y61H); experiment: HLA class II binding assay, DRB1*0301 (DR3); conditions: read-out: DR3 binding affinity
# Description: Conversely, The DR supertype cross-reactive binding peptides were also tested for DR3 binding capacity.
# HLA-A*0301 = HLA-A*0301 (Homo sapiens, UniProt P04439); experiment: HLA class I binding assay, purified HLA-A*0301; conditions: Table XXIII, binding affinity
# HLA-A*1101 = HLA-A*1101 (Homo sapiens, UniProt P04439, A114D/D185E/E176A/F33Y/L180Q/S129P/T187R); experiment: HLA class I binding assay, purified HLA-A*1101; conditions: Table XXIII, binding affinity
# HLA-A*6801 = HLA-A*6801 (Homo sapiens, UniProt P04439, A269V/D185E/E176V/E277Q/E87N/F33Y/G231S/I121M/I166T/I218V/L180W/L300P/L318F/N151K/P208A/P217A/Q86R/R169H/T345S); experiment: HLA class I binding assay, purified HLA-A*6801; conditions: Table XXIII, binding affinity
# HLA-A*3301 = HLA-A*3301 (Homo sapiens, UniProt P04439, A270S/D185E/E176V/E277Q/E87N/F33T/G231S/H175R/I121M/I218V/I322F/K168Q/K210R/L300P/L318F/M331R/P217A/Q86R/Q94H/R138Q/T323A/T345S/T97I/V358M/Y195H); experiment: HLA class I binding assay, purified HLA-A*3301; conditions: Table XXIII, binding affinity
# [1] = tested on: .221A2.1 cells pulsed with peptide; experiment: Primary in vitro CTL induction, 51Cr release against peptide-pulsed targets; format: cell-based, human; conditions: number of donors yielding a positive response/total tested
# Description: (§1) The colon adenocarcinoma cell lines SW403 and […], the osteosarcoma line Saos-2 and the breast tumor line BT540 were obtained from the American Type Culture Collection (ATCC) (Rockville, Md.). The gastric cancer line, KATO III was obtained from the Japanese Cancer Research Resources Bank. […] The melanoma, colon and gastric cancer cells were treated with 100 U/ml IFN (Genzyme) for 48 hours at 37° C. before use as targets in the ^51Cr release and in situ IFN assays.
# The monocytes were purified by plating 10×10^6 PBMC/well in a 6-well plate. After 2 hours at 37° C., the non-adherent cells were removed by gently shaking the plates and aspirating the supernatants. The wells were washed a total of three times with 3 ml RPMI to remove most of the non-adherent and loosely adherent cells. Three ml of complete medium containing 50 ng/ml of GM-CSF and 1,000 U/ml of IL-4 were then added to each well. […]
# Induction of CTL with DC and Peptide: CD8+ T-cells were isolated by positive selection with Dynal immunomagnetic beads (Dynabeads® M-450) and the detacha-bead® reagent. […] The DC were collected and centrifuged at 1300 rpm for 5-7 minutes, washed once with PBS with 1% BSA, counted and pulsed with 40 μg/ml of peptide at a cell concentration of 1-2×10^6/ml in the presence of 3 μg/ml β2-microglobulin for 4 hours at 20° C. The DC were then irradiated (4,200 rads), washed 1 time with medium and counted again. […]
# [2] = tested on: tumor targets that endogenously express CEA (SW403, HT-20, KATO III); experiment: 51Cr release against tumor targets (endogenous recognition); format: cell-based, human; conditions: number of donors yielding a positive response/total tested
# Description: as §1
# Restimulation of the induction cultures with peptide-pulsed adherent cells: Seven and fourteen days after the primary induction the cells were restimulated with peptide-pulsed adherent cells. […] After expansion, activity was measured in both assays for a side by side comparison.
# Seven days after the second restimulation, cytotoxicity was determined in a standard (5 hr) ^51Cr release assay by assaying individual wells at a single E:T. Peptide-pulsed targets were prepared by incubating the cells with 10 μg/ml peptide overnight at 37° C.
# Adherent target cells were removed from culture flasks with trypsin-EDTA. […] At that time, 100 μl of supernatant were collected from each well and percent lysis was determined according to the formula: [(cpm of the test sample−cpm of the spontaneous ^51Cr release sample)/(cpm of the maximal ^51Cr release sample-cpm of the spontaneous ^51Cr release sample)]×100. […]
# HLA-A*1101, sequence (P04439 25-365 limits assumed, stated change not applied): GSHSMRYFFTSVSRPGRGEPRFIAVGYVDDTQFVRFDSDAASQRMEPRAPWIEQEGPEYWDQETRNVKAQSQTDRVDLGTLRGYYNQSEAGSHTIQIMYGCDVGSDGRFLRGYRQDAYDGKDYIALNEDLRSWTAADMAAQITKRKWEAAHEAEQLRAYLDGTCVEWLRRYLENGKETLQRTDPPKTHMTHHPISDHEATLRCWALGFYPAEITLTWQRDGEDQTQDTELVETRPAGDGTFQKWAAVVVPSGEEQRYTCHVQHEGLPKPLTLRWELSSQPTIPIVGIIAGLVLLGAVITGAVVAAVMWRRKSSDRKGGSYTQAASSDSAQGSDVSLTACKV
# HLA-DRB1*0301 (DR3), sequence (P01903 26-254 limits assumed, other chains not shown): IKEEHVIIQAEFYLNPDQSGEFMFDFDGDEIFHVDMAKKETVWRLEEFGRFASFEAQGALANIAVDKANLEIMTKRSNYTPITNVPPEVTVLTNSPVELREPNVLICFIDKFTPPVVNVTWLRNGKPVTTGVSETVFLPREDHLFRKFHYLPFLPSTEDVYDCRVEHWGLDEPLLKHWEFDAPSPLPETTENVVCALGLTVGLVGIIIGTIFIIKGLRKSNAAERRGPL
smiles,measurement,setting,value
CC[C@H](C)[C@H](NC(=O)[C@@H](NC(=O)[C@H](Cc1c[nH]cn1)NC(=O)[C@@H](N)CC(C)C)C(C)C)C(=O)N[C@@H](CCCCN)C(=O)N[C@@H](CO)C(=O)N[C@@H](CC(=O)O)C(=O)N[C@@H](CC(C)C)C(=O)N[C@H](C(=O)N[C@@H](CC(N)=O)C(=O)N[C@@H](CCC(=O)O)C(=O)N[C@@H](CCC(=O)O)C(=O)N[C@@H](C)C(=O)N[C@H](C(=O)NCC(=O)O)[C@@H](C)O)C(C)C [CEA.122],pIC50,HLA-DRB1*0301 (DR3),5.64
CC(C)[C@H](NC(=O)[C@@H](N)[C@@H](C)O)C(=O)N[C@@H](CO)C(=O)N1CCC[C@H]1C(=O)N[C@@H](CO)C(=O)N[C@@H](Cc1ccc(O)cc1)C(=O)N[C@H](C(=O)N[C@@H](Cc1ccc(O)cc1)C(=O)N[C@@H](Cc1ccc(O)cc1)C(=O)N[C@@H](CCCNC(=N)N)C(=O)O)[C@@H](C)O [CEA.419.V2],pIC50,HLA-A*0301,5.63
same,pIC50,HLA-A*1101,5.52
same,pIC50,HLA-A*6801,8.07
same,pIC50,HLA-A*3301,6.58
CC(C)C[C@H](NC(=O)[C@H](CC(N)=O)NC(=O)[C@H](CC(C)C)NC(=O)[C@H](CC(N)=O)NC(=O)[C@H](C)NC(=O)CNC(=O)[C@H](CO)NC(=O)[C@H](CC(C)C)NC(=O)[C@@H](N)Cc1ccc(O)cc1)C(=O)O [compound 605],CTL Wildtype,[1]; Table XXVIIa,2/2
same,CTL Wild-type,[1]; Table XXVIIb,2/2
same,CTL Tumor,[2]; Table XXVIIa,1/2
same,CTL Tumor,[2]; Table XXVIIb,1/2
